Tests used:
[1] = for surface tension liquid-gas: Ring tensiometer; for viscosity / speed of sound / mass density: 100 kPa, Liquid; for viscosity: Capillary tube (Ostwald / Ubbelohde) method; for speed of sound: Frequency=2 MHz, Linear variable-path acoustic interferometer; for mass density: Vibrating tube method
[2] = xn = mol fraction of the nth substance listed; settings: x2 = 0; for surface tension liquid-gas: Ring tensiometer; for viscosity / speed of sound / mass density: 100 kPa, Liquid; for viscosity: Capillary tube (Ostwald / Ubbelohde) method; for speed of sound: Frequency=2 MHz, Linear variable-path acoustic interferometer; for mass density: Vibrating tube method

Cc1cccc(C)c1 [1,3-dimethylbenzene]
[1]
Settings	mass density [kg/m3]	speed of sound [m/s]	surface tension liquid-gas [mN/m]	viscosity [mPa·s]
298.15 K	859.1	1320.9	28.19	0.59
308.15 K	849.2	1280	26.95	0.525
318.15 K	840.4	1238.2	25.64	0.482
323.15 K	835.8	1218.4	25	0.443
328.15 K	831.6	1195.2	24.37	0.433

Cc1cccc(C)c1 [1,3-dimethylbenzene] + CCC(C)(C)OC
[2]
Settings	mass density [kg/m3]	speed of sound [m/s]	surface tension liquid-gas [mN/m]	viscosity [mPa·s]
298.15 K	859.1	1320.9	28.19	0.59
308.15 K	849.2	1280	26.95	0.525
318.15 K	840.4	1238.2	25.64	0.482
323.15 K	835.8	1218.4	25	0.443
328.15 K	831.6	1195.2	24.37	0.433

CCC(C)(C)OC [2-methoxy-2-methylbutane]
[1]
Settings	mass density [kg/m3]	speed of sound [m/s]	surface tension liquid-gas [mN/m]	viscosity [mPa·s]
298.15 K	765.6	1118	19.72	0.424
308.15 K	756.3	1075.6	18.66	0.39
318.15 K	746.3	1031.1	17.65	0.357
323.15 K	741.4	1003	17.13	0.34
328.15 K	736.5	985.24	16.62	0.328

CCCCCC [hexane]
[1]
Settings	mass density [kg/m3]	speed of sound [m/s]	surface tension liquid-gas [mN/m]	viscosity [mPa·s]
298.15 K	654.7	1073.2	17.75	0.295
308.15 K	645.4	1031.2	16.63	0.263
318.15 K	636.2	981.26	15.52	0.24
323.15 K	631.2	960.75	14.96	0.232
328.15 K	626.4	940.39	14.41	0.223

CCCCCC [hexane] + CCC(C)(C)OC
[2]
Settings	mass density [kg/m3]	speed of sound [m/s]	surface tension liquid-gas [mN/m]	viscosity [mPa·s]
298.15 K	654.7	1073.2	17.75	0.295
308.15 K	645.4	1031.2	16.63	0.263
318.15 K	636.2	981.23	15.52	0.24
323.15 K	631.2	960.75	14.96	0.232
328.15 K	626.4	940.35	14.41	0.223

Reference: the NIST ThermoML archive (doi:10.1021/acs.jced.8b00589)
